Laboratory results published in US11667649B2, “Heteroaromatic macrocyclic ether chemotherapeutic agents” (Nuvalent, Inc., priority 2020, dated 2023).

Tested on: TPM3-NTRK1-wt IC50 / primary target (e.g. CD74-ROS1-wt) IC50, Ba/F3 cells
Assay: Cell assay TRKA selectivity (TRKA potency divided by primary target potency)
Assay type: cell-based
Conditions: for TPM3-NTRK1-wt/CD74-ROS1-G2032R: TRKA selectivity ratio: TPM3-NTRK1-wt IC50 / CD74-ROS1-G2032R IC50, Ba/F3 cells; for TPM3-NTRK1-wt/CD74-ROS1-wt: TRKA selectivity ratio: TPM3-NTRK1-wt IC50 / CD74-ROS1-wt IC50, Ba/F3 cells; for TPM3-NTRK1-wt/EML4-ALK-L1196M-G1202R: TRKA selectivity ratio: TPM3-NTRK1-wt IC50 / EML4-ALK-L1196M-G1202R IC50, Ba/F3 cells; for TPM3-NTRK1-wt/EML4-ALK-wt: TRKA selectivity ratio: TPM3-NTRK1-wt IC50 / EML4-ALK-wt IC50, Ba/F3 cells
Summary of the method: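 Ratio of TRKA to primary-target cellular IC50 (e.g. TPM3-NTRK1-wt/CD74-ROS1-wt), grouped into bins A >30, B >10, C ≥1, D <1. Each IC50 came from engineered Ba/F3 fusion lines grown without IL-3, dosed for 72 h and read as CellTiter-Glo luminescence, with a four-parameter logistic fit.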

SMILES	TPM3-NTRK1-wt/CD74-ROS1-G2032R	TPM3-NTRK1-wt/CD74-ROS1-wt	TPM3-NTRK1-wt/EML4-ALK-L1196M-G1202R	TPM3-NTRK1-wt/EML4-ALK-wt
CCn1ncc2c1-c1cnc(N)c(c1)O[C@H](C)c1cc(F)ccc1-c1nn(C(F)F)cc1C2 [Example 86, (19R)-10-(difluoromethyl)-3-ethyl-16-fluoro-19-methyl-20-oxa-3,4,10,11,23-pentaazapentacyclo[19.3.1.0^2,^6.0^8,^12.0^13,^18]pentacosa-1(24),2(6),4,8,11,13,15,17,21(25),22-decaen-22-amine]	B (bin B for high selectivity, ratio>10-fold)	A (bin A for very high selectivity, ratio>30-fold)	D (bin D for low selectivity, ratio<1)	C (bin C for moderate selectivity, ratio≥1)
CCn1ncc2c1-c1cnc(N)c(c1)O[C@H](C)c1cc(F)ccc1-n1nc(C(F)(F)F)cc1C2 [Example 52, (19R)-3-ethyl-16-fluoro-19-methyl-10-(trifluoromethyl)-20-oxa-3,4,11,12,23-pentaazapentacyclo[19.3.1.0^2,^6.0^8,^12.0^13,^18]pentacosa-1(24),2(6),4,8,10,13,15,17,21(25),22-decaen-22-amine]	A (bin A for very high selectivity, ratio>30-fold)	A (bin A for very high selectivity, ratio>30-fold)	C (bin C for moderate selectivity, ratio≥1)	B (bin B for high selectivity, ratio>10-fold)
Cc1nc2c(s1)Cn1ncc(C#N)c1-c1cnc(N)c(c1)O[C@H](C)c1cc(F)ccc1-2 [Example 67, (19R)-22-amino-16-fluoro-10,19-dimethyl-20-oxa-9-thia-5,6,11,23-tetraazapentacyclo[19.3.1.0^2,^6.0^8,^12.0^13,^18]pentacosa-1(24),2,4,8(12),10,13,15,17,21(25),22-decaene-3-carbonitrile]	A (bin A for very high selectivity, ratio>30-fold)	A (bin A for very high selectivity, ratio>30-fold)	C (bin C for moderate selectivity, ratio≥1)	A (bin A for very high selectivity, ratio>30-fold)
CC1Oc2cc(cnc2N)-c2c(cnn2C2CCC2)Cn2ccnc2-c2ccc(F)cc21 (stereo not shown) [Example 37, 3-cyclobutyl-16-fluoro-19-methyl-20-oxa-3,4,8,11,23-pentaazapentacyclo[19.3.1.0^2,^6.0^8,^12.0^13,^18]pentacosa-1(24),2(6),4,9,11,13,15,17,21(25),22-decaen-22-amine]	A (bin A for very high selectivity, ratio>30-fold)	A (bin A for very high selectivity, ratio>30-fold)	A (bin A for very high selectivity, ratio>30-fold)	A (bin A for very high selectivity, ratio>30-fold)
CCn1ncc2c1-c1cnc(N)c(n1)OC(C)c1cc(F)ccc1-c1c(cnn1C)C2 (stereo not shown) [Example 164, 3-ethyl-16-fluoro-11,19-dimethyl-20-oxa-3,4,10,11,23,25-hexaazapentacyclo[19.3.1.0^2,^6.0^8,^12.0^13,^18]pentacosa-1(24),2(6),4,8(12),9,13,15,17,21(25),22-decaen-22-amine]	A (bin A for very high selectivity, ratio>30-fold)	–	C (bin C for moderate selectivity, ratio≥1)	B (bin B for high selectivity, ratio>10-fold)
CCn1ncc2c1-c1cnc(N)c(c1)O[C@H](C)c1cc(F)ccc1-n1nc(F)cc1C2 [Example 71, (19R)-3-ethyl-10,16-difluoro-19-methyl-20-oxa-3,4,11,12,23-pentaazapentacyclo[19.3.1.0^2,^6.0^8,^12.0^13,^18]pentacosa-1(24),2(6),4,8,10,13,15,17,21(25),22-decaen-22-amine]	A (bin A for very high selectivity, ratio>30-fold)	B (bin B for high selectivity, ratio>10-fold)	C (bin C for moderate selectivity, ratio≥1)	B (bin B for high selectivity, ratio>10-fold)
C[C@H]1Oc2cc(cnc2N)-c2c(C#N)nn(C)c2Cc2ccccc2-c2ccc(F)cc21 [Example 117, (20R)-23-amino-17-fluoro-5,20-dimethyl-21-oxa-4,5,24-triazapentacyclo[20.3.1.0^2,^6.0^8,^13.0^14,^19]hexacosa-1(25),2(6),3,8(13),9,11,14,16,18,22(26),23-undecaene-3-carbonitrile]	A (bin A for very high selectivity, ratio>30-fold)	A (bin A for very high selectivity, ratio>30-fold)	B (bin B for high selectivity, ratio>10-fold)	A (bin A for very high selectivity, ratio>30-fold)
CCc1nn(C)c2c1-c1cnc(N)c(c1)OCc1cc(F)ccc1-c1nc(C)sc1C2 [Example 175, 3-ethyl-16-fluoro-5,10-dimethyl-20-oxa-9-thia-4,5,11,23-tetraazapentacyclo[19.3.1.0^2,^6.0^8,^12.0^13,^18]pentacosa-1(24),2(6),3,8(12),10,13,15,17,21(25),22-decaen-22-amine]	A (bin A for very high selectivity, ratio>30-fold)	A (bin A for very high selectivity, ratio>30-fold)	B (bin B for high selectivity, ratio>10-fold)	A (bin A for very high selectivity, ratio>30-fold)
CCn1ncc2c1-c1cnc(N)c(c1)OCc1cc(F)ccc1-c1ncccc1C2 [Example 8, 3-ethyl-17-fluoro-21-oxa-3,4,12,24-tetraazapentacyclo[20.3.1.0^2,^6.0^8,^13.0^14,^19]hexacosa-1(25),2(6),4,8(13),9,11,14,16,18,22(26),23-undecaen-23-amine]	A (bin A for very high selectivity, ratio>30-fold)	A (bin A for very high selectivity, ratio>30-fold)	B (bin B for high selectivity, ratio>10-fold)	A (bin A for very high selectivity, ratio>30-fold)
C[C@H]1Oc2cc(cnc2N)-c2c(c(Cl)nn2CC(F)F)Cc2cn(C)nc2-c2ccc(F)cc21 [Example 83, (19R)-5-chloro-3-(2,2-difluoroethyl)-16-fluoro-10,19-dimethyl-20-oxa-3,4,10,11,23-pentaazapentacyclo[19.3.1.0^2,^6.0^8,^12.0^13,^18]pentacosa-1(24),2(6),4,8,11,13,15,17,21(25),22-decaen-22-amine]	A (bin A for very high selectivity, ratio>30-fold)	A (bin A for very high selectivity, ratio>30-fold)	A (bin A for very high selectivity, ratio>30-fold)	A (bin A for very high selectivity, ratio>30-fold)
CCc1noc2c1-c1cnc(N)c(c1)O[C@H](C)c1cc(F)ccc1-c1nncn1C2 [Example 120, (19R)-3-ethyl-16-fluoro-19-methyl-5,20-dioxa-4,8,10,11,23-pentaazapentacyclo[19.3.1.0^2,^6.0^8,^12.0^13,^18]pentacosa-1(24),2(6),3,9,11,13,15,17,21(25),22-decaen-22-amine]	C (bin C for moderate selectivity, ratio≥1)	A (bin A for very high selectivity, ratio>30-fold)	D (bin D for low selectivity, ratio<1)	C (bin C for moderate selectivity, ratio≥1)
Nc1ncc2cc1OCc1cc(F)ccc1-n1nc(C(F)F)cc1Cc1cnn(CC3CC3)c1-2 [Example 138, 3-(cyclopropylmethyl)-10-(difluoromethyl)-16-fluoro-20-oxa-3,4,11,12,23-pentaazapentacyclo[19.3.1.0^2,^6.0^8,^12.0^13,^18]pentacosa-1(24),2(6),4,8,10,13,15,17,21(25),22-decaen-22-amine]	A (bin A for very high selectivity, ratio>30-fold)	A (bin A for very high selectivity, ratio>30-fold)	A (bin A for very high selectivity, ratio>30-fold)	A (bin A for very high selectivity, ratio>30-fold)
CCc1snc2c1-c1cnc(N)c(c1)O[C@H](C)c1cc(F)ccc1-c1nn(C)cc1C2 [Example 88, (19R)-3-ethyl-16-fluoro-10,19-dimethyl-20-oxa-4-thia-5,10,11,23-tetraazapentacyclo[19.3.1.0^2,^6.0^8,^12.0^13,^18]pentacosa-1(24),2,5,8,11,13,15,17,21(25),22-decaen-22-amine]	B (bin B for high selectivity, ratio>10-fold)	A (bin A for very high selectivity, ratio>30-fold)	C (bin C for moderate selectivity, ratio≥1)	A (bin A for very high selectivity, ratio>30-fold)
C[C@H]1Oc2cc(cnc2N)-c2c(cnn2CC(F)F)Cc2cn(C)nc2-c2ccc(F)cc21 [Example 22, (19R)-3-(2,2-difluoroethyl)-16-fluoro-10,19-dimethyl-20-oxa-3,4,10,11,23-pentaazapentacyclo[19.3.1.0^2,^6.0^8,^12.0^13,^18]pentacosa-1(24),2(6),4,8,11,13,15,17,21(25),22-decaen-22-amine]	A (bin A for very high selectivity, ratio>30-fold)	A (bin A for very high selectivity, ratio>30-fold)	A (bin A for very high selectivity, ratio>30-fold)	A (bin A for very high selectivity, ratio>30-fold)
